Results as given in US20090023186A1, “USE OF VALPROIC ACID FOR ENHANCING PRODUCTION OF RECOMBINANT PROTEINS IN MAMMALIAN CELLS” (EXCELLGENE SA, priority 2007, published 2009).

System: HEK293E cells
Experiment: Alternative transgene TNFR-Fc, batch titer by ELISA (Example 4)
Type: cell-based, Human
Conditions: 3.8 mmol/l final VPA, day 5 after transfection
Experimental: 10 million suspension-adapted HEK293E cells were resuspended in 0.5 ml of Ex-Cell 293 HEK 293 serum-free medium with 4 mmol/l L-glutamine (Cat. No. 14571C-[…]; Lot No. 6A0093; SAFC Biosciences, Lenexa, Kans., USA, “Ex-Cell” medium; note: “Ex-Cell” medium-as used herein-refers to a medium comprising 4 mmol/l L-glutamine) in a 50-ml filter tube each (TPP AG, Trasadingen, Switzerland; Cat. No. 87050, Lot 20050174). In a separate set, 10 million suspension-adapted CHO DG44 cells were resuspended in 0.5 ml of ProCHO5 serum-free medium with 4 mmol/[…] hypoxanthine and 0.194 g/l thymidine (BioWhittaker (Lonza), Belgium; Cat. No. BE12-[…]; Lot No. 7MB0040; “ProCHO5” medium; note: “ProCHO5” medium-as used herein-refers to a medium comprising 4 mmol/[…] hypoxanthine and 0.194 g/l thymidine) in a 50-ml filter tube each (TPP AG, Trasadingen, Switzerland; Cat. No. 87050, Lot 20050174). […] In short, Goat Anti-Human IgG (Fc Fragment specific; Jackson ImmunoResearch Laboratories Inc., West Grove, Pa., USA; Code Number 109-006-098; Lot No. 72349) was used for coating the ELISA-plates, and with AP-conjugated goat anti-human gamma chain IgG (Biosource) the synthesized TNFR-Fc was detected. […] Absorption was measured at 405 nm against 490 nm using a microplate reader (SPECTRAmaxTM340; Molecular Devices, Palo Alto, Calif., USA).

CCCC(CCC)C(=O)O [VPA, valproic acid]
Batch titer: 159.5 ± 12.0 mg/L | Fold increase over control: 4.5 fold
